Data on three substances can be found in patent US8466104B2, “Therapeutically active alpha MSH analogues” (AbbVie Inc., priority 2005, dated 2013).

“Also recorded” adds a separate entry of the source.

Assay [1] concerns LPS induced cytokine release and pulmonary hypertension in pigs. Description: Inhibition of LPS induced cytokine release and pulmonary hypertension in pigs in vivo (experimental setup 4). Further details: species or system pig. The following applies: 200 μg/kg single iv bolus. How it is done:
Inhibition of LPS Induced Cytokine Release and Pulmonary Hypertension in Pigs in vivo.
Female Landrace pigs (˜30 kg) are fasted overnight but allowed free access to water. Then the pigs are premedicated with intramuscular ketamine (10 mg/kg) and midazolam (0.25 mg/kg). Anesthesia is induced with intravenous ketamine (5 mg/kg). The pigs are orally intubated, and anesthesia is maintained with a continuous intravenous infusion of fentanyl (60 μg/kg/h and midazolam (6 mg/kg/h). The animals are ventilated with a volume-controlled ventilator (Servo 900 ventilator; Siemens Elema, Solna, Sweden) with a positive end-expiratory pressure of 5 cm H2O. Tidal volume is kept at 10-15 ml/kg, and the respiratory rate adjusted (20-25 breaths/min) to maintain normocapnia (arterial carbon dioxide tension [PaCO2] in the range of 34-45 mmHg). Ventilation is performed with oxygen in air aimed tot reach an arterial oxygen tension (PaO2) higher than 105 mmHg. One arterial and 2 venous sheaths are placed in the carotid artery and corresponding veins for infusion, blood pressure measurements through fluid filled catheter, blood sampling and for introducing catheters.
Localization of the balloon-tipped catheter is determined by observing the characteristic pressure trace on the monitor as it is advance through the right side of the heart into the pulmonary artery as well as by x-ray. […]

Assay [2] deals with ischemia-induced acute renal failure in rats. Description: Inhibition of renal failure induced by 40 minutes bilateral occlusion of the renal arteries in rats (experimental setup 6). The assay is classed as in vivo, rat. The following applies: for diuresis (urine flow rate): 5 day after bilateral renal ischemia (RIR), 200 μg/kg iv; for effect on post ischemic polyuria: bilateral renal ischemia. The protocol: Inhibition of Renal Failure Induced by 40 Minutes Bilateral Occlusion of the Renal Arteries in Rats
Barrier-bred and specific pathogen-free female Wistar rats (250 g) are obtained from Charles River, Hannover, Germany. The animals are housed in a temperature (22-24° C.) and moisture (40-70%) controlled room with a 12-hour light-dark cycle (light on from 6:00 A.M. to 6:00 P.M.). All animals are given free access to tap water and a pelleted rat diet containing approximately 140 mmol/kg of sodium, 275 mmol/kg potassium and 23% protein (Altromin catalogue no. 1310, Altromin International, Lage, Germany).
The rats, which previously have been instrumented with a chronic venous catheter, are placed in metabolic cages and after a two days acclimation period to the metabolic cages, experimental ARF is induced by occlusion of both renal arteries for […]. During surgery, the rats are anesthetized with isoflurane-nitrous oxide and placed on a heated table to maintain rectal temperature at 37° C. Both kidneys are exposed through flank incisions, mobilized by being dissected free from the perirenal fat, then a small portion of the renal artery is gently dissected from the vein. The renal arteries are occluded with a smooth surfaced vascular clip (60 g pressure; World Precision Instruments, UK) for 40 min. Total ischemia is confirmed by observing blanching of the entire kidney surface. During the period of ischemia, the wounds are closed temporarily to maintain body temperature. After the clips are removed, the kidneys are observed for additional 2-5 min. to ensure color change, indicating blood reflow. Then the wound are closed with 3-0 silk ligatures. The rats returned to the metabolic cages, and daily 24 h urine output and water intake are measured for five days. As a control group, rats are subjected to sham operations identical to the ones used for ARF rats without occlusion of the renal arteries. Sham-operated rats are monitored in parallel with rats with ARF.
The rats are subjected to one of the following i.v treatments: • Vehicle: 0.5 ml 150 mM NaCl. • a-MSH: 200 μg a-melanocyte stimulating hormone/kg b.w. in 0.5 ml 150 mM NaCl. Test compound: 200 μg test compound/kg b.w. in 0.5 ml 150 mM NaCl. Treatment is given 5 minutes prior to reperfusion of the kidney and subsequently 6 and 24 hours later. Statistics
Data are presented as mean±S.E. Within group comparisons are analysed with Student's paired t test. Between group comparisons are performed by one way analysis of variance followed by Fishers Least Significant Difference test. Differences are considered significant at the 0.05 level.

Regarding “Ac-Lys-Lys-Lys-Lys-Lys-Lys-Ser-Tyr-Ser-Met-Glu-His-Phe-Arg-Trp-Gly-Lys-Pro-Val-NH2 (Ac-KKKKKKSYSMEHFRWGKPV-NH2) [a-MSH analogue #1]”, in assay [1], the “plasma concentrations of TNFa after LPS infusion” value is given as “marked reduction in plasma concentrations of TNFa”. In assay [1] (LPS infusion), the “maximal increase in pulmonary artery pressure (PAP)” value stood at 8±2 mmHg. Further, the “diuresis (urine flow rate)” value in assay [2] was 18.8±3.6 ml/24 hours. For the same substance, the “effect on post ischemic polyuria” value in assay [2] is recorded as “complete normalization of urine flow rate”; in assay [2] (listed as SEQ ID NO: 1), “completely normalized the diuresis”.
On to “Ser-Tyr-Ser-Met-Glu-His-Phe-Arg-Trp-Gly-Lys-Pro-Val [a-MSH, reference compound]”, for which, in assay [2], the “diuresis (urine flow rate)” value is given as 29.0±2.9 ml/24 hours and the “effect on post ischemic polyuria” value is listed as “unable to reduce the polyuria; also recorded: unable to normalize the urine production”.
Regarding “Ac-Lys-Lys-Lys-Lys-Lys-Lys-Ser-Tyr-Ser-Nle-Glu-His-(D-Phe)-Arg-Trp-Gly-Lys-Pro-Val-NH2 (KKKKKKSYSXEHFRWGKPV; N-acetyl, Nle, D-Phe, C-amide) [a-MSH analogue #2]”, in assay [2], the “effect on post ischemic polyuria” value was “markedly reduces the degree of polyuria”.
